Reference: patent US11192888B2, “Antibacterial compounds” (priority 2017, dated 2021)
Converted amounts (≈) assume the structure as drawn. “And” between values parts separate entries of the source, which are not always exact repeats. Equal values may be shown once. Read-outs that look alike come from different tables or passages of the source. *1 amine or outer side, *2 acyl side, *3 side chain or, on linkers, in order; H or OH if unused. Where a SMILES comes first, the peptide text is derived from it. [ ]: non-standard residue; d: D form. dAla(ψthiazole) = C[C@@H](N[*:1])c1nc(C(=O)[*:2])cs1; Trp(4-Br) = N[C@@H](Cc1c[nH]c2cccc(Br)c12)C(=O)O; Dhb = C/C=C(\N)C(=O)O; Sar = CNCC(=O)O

What was measured:
[1] = test system: Lactobacillus rhamnosus ATCC 53103
[2] = test system: Corynebacterium jeikeium NCTC 11914
[3] = test system: Clostridium innocuum DSM 1286
[4] = test system: Pseudomonas aeruginosa NCTC 13437
[5] = test system: Clostridium sordellii ATCC 9714; test: CLSI MIC, representative gut bacteria; assay type: cell-based
Protocol: (§1) Comparative in vitro bacterial susceptibility to compounds 3, 9 and 10, vancomycin and metronidazole was determined using methods according to the Clinical and Laboratory Standard Institute (CLSI) approved guidelines (M7-A10, M11-A7 or M45-A2) for anaerobic and aerobic organisms.

[6] = test system: Clostridium difficile ATCC 43255; test: CLSI MIC, representative gut bacteria; assay type: cell-based
Protocol: as §1

[7] = test system: Escherichia coli ATCC 25922
[8] = test system: Corynebacterium urealyticum NCTC 12011
Clostridium scindens = test: Growth of Clostridium scindens (separate study); assay type: cell-based; details: at 80.0 μg/mL
Excerpt: It is known that the presence of Clostridium scindens in the gut can help to keep Clostridium difficile at bay. […] This would not be the case if a broad-spectrum antibiotic, such as vancomycin or metronidazole, was to be used. The lack of activity against Clostridium scindens would, therefore, further help the gut to recover from Clostridium difficile infection.

[9] = test system: Clostridium perfringens NCTC 8237
[10] = test system: Citrobacter koseri Clinical
[11] = test system: 23 representatives of normal gut flora; test: CLSI MIC, whole panel of representative gut bacteria; assay type: cell-based; details: at 64 μg/mL
[12] = test system: Enterococcus faecium NCTC 12204
[13] = test system: Proteus mirabilis DSM 30116
[14] = test system: Enterococcus faecalis ATCC 29212
[15] = test system: Bacteroides fragilis ATCC 25285; details: Bacteroides fragilis, ATCC25285
[16] = test system: Enterobacter cloacae NCTC 13406
[17] = test system: Bifidobacterium breve ATCC 15700
[18] = test system: Staphylococcus aureus ATCC 29213
[19] = test system: Bifidobacterium bifidum ATCC 11863
[20] = test system: Clostridium difficile strains (21 clinical, 7 reference)
[21] = test system: Clostridium ramosum DSM 1402
[22] = mice
Protocol: In this study, a single oral dose of compound 3 in 0.5% w/v aqueous methylcellulose at 5 mg/kg was administered to nine mice in a 10 mL/kg dosing volume and housed in metabolism cages. Following administration of the compound, serial blood samples of 50 μL was taken from the lateral tail vein at each of 7 post-dosing time-points (0.25, 0.5, 1, 2, 4, 7 and 24 h). Whole blood samples were then diluted 1:1 with water and two 40 μL aliquots were pipetted into duplicate 96 well plate tubes. At the end of 24 h, all faecal samples were collected and pooled. A quantitative bioanalysis by LC-MS/MS of the blood and faecal levels of compound 3 was carried out to determine the oral absorbability and gastrointestinal metabolic stability of compound 3.
To evaluate the metabolic stability of orally administered compound 3, metabolite profiling of the faecal sample was performed.

[23] = test system: C. difficile BI1 (BI/NAP1, ribotype 027); test: Hamster model of C. difficile-associated disease; assay type: in vivo, Golden Syrian hamsters
[24] = test system: Propionibacterium acnes ATCC 6919

## C/C=C1\NC(=O)[C@@H](C)NC(=O)CNC(=O)[C@H](Cc2c[nH]c3cccc(Br)c23)NC(=O)[C@H](Cc2c[nH]c3ccccc23)NC(=O)c2csc(n2)[C@@H](C)NC(=O)CN(C)C1=O [Compound 10, Cyclo[D-Ala-Thz-Trp-Trp(4-Br)-Gly-D-Ala-Dhb-Sar]] (cyclo([Dhb][Sar][dAla(ψthiazole)]W[Trp(4-Br)]G[dA]))
[1]
  MIC: >64 µg/mL
[2]
  MIC: >64 µg/mL
[3]
  MIC: >64 µg/mL
[4]
  MIC: >64 µg/mL
[5]
  MIC: 1.0 µg/mL (≈ 1.13 µM)
[6]
  fold more potent against C. difficile ATCC 43255 compared to Bacteroides fragilis: at least 256 fold
[6]; Clostridium difficile ATCC 43255
  MIC: 0.25 µg/mL (≈ 0.282 µM)
[7]
  MIC: >64 µg/mL
[8]
  MIC: >64 µg/mL
Clostridium scindens
  growth of Clostridium scindens: unaffected
[9]
  MIC: 64 µg/mL (≈ 72.1 µM)
[10]
  MIC: >64 µg/mL
[11]
  share of the 23 representatives of normal gut flora that are insensitive: Approximately 90%
[12]
  MIC: >64 µg/mL
[13]
  MIC: >64 µg/mL
[14]
  MIC: >64 µg/mL
[15]
  MIC: > 64 µg/mL
[16]
  MIC: >64 µg/mL
[17]
  MIC: >64 µg/mL
B. multivorans ATCC17616; ATCC17616, 25 h
  IC50: 840 ± 100 nM
B. multivorans ATCC17616; against B. multivorans
  times more potent than Argyrin A: 4 to 5
[18]
  MIC: >64 µg/mL
P. aeruginosa PAO1; PAO1
  activity against P. aeruginosa in comparison to the Dha containing compound 3: three-fold increase in activity
P. aeruginosa PAO1; PAO1, 13 h
  IC50: 3700 ± 1000 nM
P. aeruginosa PAO1; PAO1, 13 h, 100
  % Growth inhibition at 100 μM: 90.6 ± 1.3%
P. aeruginosa PAO1; against P. aeruginosa
  times more potent than Argyrin A: 4 to 5
[19]
  MIC: >64 µg/mL
[20]; 28 C. difficile strains
  MIC40: 0.25 µg/mL (≈ 0.282 µM)
  MIC50: 0.50 µg/mL (≈ 0.563 µM)
  MIC90: 0.50 µg/mL (≈ 0.563 µM)
[20]; C. difficile strain 630 (ribotype 012)
  MIC: 0.25 µg/mL (≈ 0.282 µM)
[20]; C. difficile strain ATCC 9689 (ribotype 001)
  MIC: 0.5 µg/mL (≈ 0.563 µM)
[20]; C. difficile strain ATCC 13366
  MIC: 1 µg/mL (≈ 1.13 µM)
[20]; C. difficile strain ATCC 43255
  MIC: 0.25 µg/mL (≈ 0.282 µM)
[20]; C. difficile strain ATCC 700057 (ribotype 038)
  MIC: 0.25 µg/mL (≈ 0.282 µM)
[20]; C. difficile strain ATCC BAA 1875 (ribotype 078)
  MIC: 0.5 µg/mL (≈ 0.563 µM)
[20]; C. difficile strain BI1-FDX^R
  MIC: 0.25 µg/mL (≈ 0.282 µM)
[20]; C. difficile strain Clin. 1
  MIC: 0.25 µg/mL (≈ 0.282 µM)
[20]; C. difficile strain Clin. 2
  MIC: 0.5 µg/mL (≈ 0.563 µM)
[20]; C. difficile strain Clin. 3
  MIC: 0.25 µg/mL (≈ 0.282 µM)
[20]; C. difficile strain Clin. 5
  MIC: 0.5 µg/mL (≈ 0.563 µM)
[20]; C. difficile strain Clin. 6
  MIC: 0.5 µg/mL (≈ 0.563 µM)
[20]; C. difficile strain Clin. 7
  MIC: 0.25 µg/mL (≈ 0.282 µM)
[20]; C. difficile strain Clin. 8
  MIC: 0.5 µg/mL (≈ 0.563 µM)
[20]; C. difficile strain Clin. 9
  MIC: 0.5 µg/mL (≈ 0.563 µM)
[20]; C. difficile strain Clin. 10
  MIC: 0.25 µg/mL (≈ 0.282 µM)
[20]; C. difficile strain Clin. 11
  MIC: 0.5 µg/mL (≈ 0.563 µM)
[20]; C. difficile strain Clin. 12
  MIC: 0.25 µg/mL (≈ 0.282 µM)
[20]; C. difficile strain Clin. 13
  MIC: 0.5 µg/mL (≈ 0.563 µM)
[20]; C. difficile strain Clin. 14
  MIC: 0.5 µg/mL (≈ 0.563 µM)
[20]; C. difficile strain Clin. 15
  MIC: 0.5 µg/mL (≈ 0.563 µM)
[20]; C. difficile strain Clin. 16
  MIC: 0.25 µg/mL (≈ 0.282 µM)
[20]; C. difficile strain Clin. 18
  MIC: 0.5 µg/mL (≈ 0.563 µM)
[20]; C. difficile strain Clin. 20
  MIC: 0.25 µg/mL (≈ 0.282 µM)
[20]; C. difficile strain Clin. 21
  MIC: 0.5 µg/mL (≈ 0.563 µM)
[20]; C. difficile strain Clin. 22
  MIC: 0.5 µg/mL (≈ 0.563 µM)
[20]; C. difficile strain Clin. 23
  MIC: 0.5 µg/mL (≈ 0.563 µM)
[20]; C. difficile strain Clin. 24
  MIC: 0.25 µg/mL (≈ 0.282 µM)
[20]; at 0.25 μg/mL
  share of the C. difficile strains tested that are susceptible: 43%
[20]; range over strains
  MIC against C. difficile: 0.25 to 0.50 µg/mL
[21]
  MIC: >64 µg/mL
[22]; oral 5 mg/kg, 24 h
  compound recovered from pooled faeces: up to 90%
[22]; single 5 mg/kg oral dose
  faecal concentration, times above the MIC against C. difficile: more than 200
[23]; 0.2 mg/kg
  hamsters that succumbed to the disease within 36 hours post-infection: 100%
[23]; 0.2 mg/kg oral twice daily for 5 days
  Mean survival: 35.75 h
[23]; 1.0 mg/kg and 2.5 mg/kg twice daily
  animals reaching the end of the study at day-21 post-infection: 10%
[23]; 1.0 mg/kg oral twice daily for 5 days
  Mean survival: 155 h and 154.63 h
[23]; 1.0 mg/kg twice daily
  average survival: 6.5 days
  increase in survival time compared to vehicle control: 4.7 fold
[23]; 2.5 mg/kg oral twice daily for 5 days
  Mean survival: 206 h and 205.92 h
[23]; 2.5 mg/kg twice daily
  average survival: 8.5 days
  increase in survival time compared to vehicle control: 6.3 fold
  survival at day 6 post-infection: 100%
[23]; 0.2, 1.0 and 2.5 mg/kg, non-optimised doses
  survival time compared to the vehicle control: significant dose dependent increase in survival time
[24]
  MIC: >64 µg/mL
